Data taken from patent publication US6756382B2, “Amide substituted imidazoquinolines” (3M Innovative Properties Company, priority 1999, dated 2004).

Legend:
[1] = tested on: tumor necrosis factor (α); experiment: Cytokine induction in human cells: tumor necrosis factor (α) secreted by PBMCs, ELISA; format: cell-based; conditions: PBMC, incubated 18 to 24 hours, TNF determined by ELISA, read-out: Lowest Effective Concentration (μM) Tumor Necrosis Factor
Procedure, shortened: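 Human donor PBMCs at final 1.5-2×10^6 cells/mL in RPMI with 10% FBS incubated 18 to 24 h at 37° C. with serially diluted compound, DMSO at most 1% final. Supernatant TNF-α measured by ELISA; value is the lowest concentration inducing TNF.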

interferon (α) = experiment: Cytokine induction in human cells: interferon secreted by PBMCs, ELISA; format: cell-based; conditions: PBMC, incubated 18 to 24 hours, interferon determined by ELISA, read-out: Lowest Effective Concentration (μM) Interferon
Procedure, shortened: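 Human donor PBMCs at 1.5-2×10^6 cells/mL final in RPMI with 10% FBS, exposed to serially diluted compound (≤1% DMSO) for 18–24 h at 37 °C, 5% CO2. Supernatant interferon (α) measured by ELISA; value is lowest concentration inducing interferon.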

Structure (SMILES) | melting point | minimal effective concentration [1] | minimal effective concentration (interferon (α))
Nc1nc2ccccc2c2c1ncn2CCCCCCNC(=O)c1ccccc1 [Example 23, N^1-[6-(4-Amino-1H-imidazo[4,5-c]quinolin-1-yl)hexyl]benzamide] | 146 to 155 °C | > 30 µM | 1.11 µM
CCCCc1nc2c(N)nc3ccccc3c2n1CCCCNC(=O)CCCCC1SCC2NC(=O)NC21 (stereo not drawn) [Example 24, N^1-[4-(4-Amino-2-butyl-1H-imidazo[4,5-c]quinolin-1-yl)butyl]-5-(2-oxoperhydrothieno[3,4-d]imidazol-4-yl)pentanamide] | 214 to 215 °C | 3.33 µM | 0.12 µM
Nc1nc2ccccc2c2c1ncn2CCCCNC(=O)CCCCC1SCC2NC(=O)NC21 (stereo not drawn) [Example 25, N^1-[4-(4-Amino-1H-imidazo[4,5-c]quinolin-1-yl)butyl]-5-(2-oxoperhydrothieno[3,4-d]imidazol-4-yl)pentanamide] | 104 to 106 °C | > 30 µM | 3.33 µM
CCCCc1nc2c(N)nc3ccccc3c2n1CCNC(=O)CCCCC1SCC2NC(=N)NC21 (stereo not drawn) [Example 26, N^1-[2-(4-Amino-2-butyl-1H-imidazo[4,5-c]quinolin-1-yl)ethyl]-5-(2-iminoperhydrothieno[3,4-d]imidazol-4-yl)pentanamide] | 95 to 96 °C | 10 µM | 0.37 µM
Nc1nc2ccccc2c2c1ncn2CCNC(=O)CCCCC1SCC2NC(=O)NC21 (stereo not drawn) [Example 27, N^1-[2-(4-Amino-1H-imidazo[4,5-c]quinolin-1-yl)ethyl]-5-(2-oxoperhydrothieno[3,4-d]imidazol-4-yl)pentanamide] | 169 °C | > 30 µM | > 30 µM
CCCCc1nc2c(N)nc3ccccc3c2n1CCNC(=O)CCCCC1SCC2NC(=O)NC21 (stereo not drawn) [Example 28, N^1-[2-(4-Amino-2-butyl-1H-imidazo[4,5-c]quinolin-1-yl)ethyl]-5-(2-oxoperhydrothieno[3,4-d]imidazol-4-yl)pentanamide] | 124 to 126 °C | > 30 µM | 0.12 µM
CCOc1ccc2ccccc2c1C(=O)NCCCCn1cnc2c(N)nc3ccccc3c21 [Example 31, N^1-[4-(4-Amino-1H-imidazo[4,5-c]quinolin-1-yl)butyl]-2-ethoxy-1-naphthamide] | 219 °C (dec.) | > 30 µM | 1.11 µM
N#Cc1ccc(C(=O)NCCCCn2cnc3c(N)nc4ccccc4c32)cc1 [Example 32, N^1-[4-(4-Amino-1H-imidazo[4,5-c]quinolin-1-yl)butyl]-4-cyanobenzamide] | 222.8 to 225.3 °C | > 30 µM | 3.33 µM
N#Cc1cccc(C(=O)NCCCCn2cnc3c(N)nc4ccccc4c32)c1 [Example 33, N^1-[4-(4-Amino-1H-imidazo[4,5-c]quinolin-1-yl)butyl]-3-cyanobenzamide] | 200 to 201 °C (dec.) | > 30 µM | 0.37 µM
Nc1nc2ccccc2c2c1ncn2CCCCNC(=O)c1ccc(-c2ccccc2)cc1 [Example 34, N^1-[4-(4-Amino-1H-imidazo[4,5-c]quinolin-1-yl)butyl]-4-phenylbenzamide] | 215.4 °C (dec.) | 3.33 µM | > 30 µM
Nc1nc2ccccc2c2c1ncn2CCCCNC(=O)COc1ccccc1 [Example 35, N^1-[4-(4-Amino-1H-imidazo[4,5-c]quinolin-1-yl)butyl]-2-phenoxyacetamide] | 61.5 °C (dec.) | > 30 µM | 1.11 µM
CCCCC(CC)C(=O)NCCCCn1cnc2c(N)nc3ccccc3c21 (stereo not drawn) [Example 36, N^1-[4-(4-Amino-1H-imidazo[4,5-c]quinolin-1-yl)butyl]-2-ethylhexanamide] | 163 to 164 °C | 10 µM | 1.11 µM
Nc1nc2ccccc2c2c1ncn2CCCCNC(=O)c1cccc(Oc2ccccc2)c1 [Example 39, N^1-[4-(4-Amino-1H-imidazo[4,5-c]quinolin-1-yl)butyl]-3-phenoxybenzamide] | 105 to 107 °C | > 30 µM | 3.33 µM
CC(Oc1ccccc1)C(=O)NCCCCn1cnc2c(N)nc3ccccc3c21 (stereo not drawn) [Example 41, N^1-[4-(4-Amino-1H-imidazo[4,5-c]quinolin-1-yl)butyl]-2-phenoxypropanamide] | 85 to 87.5 °C | > 30 µM | 1.11 µM
Nc1nc2ccccc2c2c1ncn2CCCCNC(=O)c1ccc2ccccc2c1 [Example 43, N^2-[4-(4-Amino-1H-imidazo[4,5-c]quinolin-1-yl)butyl]-2-naphthamide] | 257 °C (dec.) | > 30 µM | 0.12 µM
COc1ccc(C(=O)NCCCCn2cnc3c(N)nc4ccccc4c32)c(OC)n1 [Example 44, N^3-[4-(4-Amino-1H-imidazo[4,5-c]quinolin-1-yl)butyl]-2,6-dimethoxynicotnamide] | 175 to 177 °C | > 30 µM | 1.11 µM
Nc1nc2ccccc2c2c1ncn2CCCCNC(=O)c1cccc2cccnc12 [Example 45, N^8-[4-(4-Amino-1H-imidazo[4,5-c]quinolin-1-yl)butyl]-8-quinolinecarboxamide] | 91 to 93 °C | > 30 µM | 3.33 µM
CC(C)Cc1ccc(C(C)C(=O)NCCCCn2cnc3c(N)nc4ccccc4c32)cc1 (stereo not drawn) [Example 46, N^1-[4-(4-Amino-1 H-imidazo[4,5-c]quinolin-1-yl)butyl]-2-(4-isobutylphenyl)propanamide] | 172 to 173 °C | 10 µM | > 30 µM
COCCc1nc2c(N)nc3ccccc3c2n1CCCCNC(=O)c1cc2ccccc2cn1 [Example 181, N-{4-[4-amino-2-(2-methoxyethyl)-1H-imidazo[4,5-c]quinolin-1-yl]butyl}isoquinoline-3-carboxamide] | 199 to 200 °C | 1.11 µM | 0.01 µM
COCCc1nc2c(N)nc3ccccc3c2n1CCCCNC(=O)c1cnc2ccccc2c1 [Example 182, N-{4-[4-amino-2-(2-methoxyethyl)-1H-imidazo[4,5-c]quinolin-1-yl]butyl}quinoline-3-carboxamide] | 114 to 116 °C | 0.01 µM | 0.01 µM
COCCc1nc2c(N)nc3ccccc3c2n1CCCCNC(=O)c1cnc2ccccc2n1 [Example 183, N-{4-[4-amino-2-(2-methoxyethyl)-1H-imidazo [4,5-c]quinolin-1-yl]butyl}quinoxaline-2-carboxamide] | 85 to 87 °C | 0.04 µM | 0.01 µM
CCCCc1nc2c(N)nc3ccccc3c2n1CCCCCCCCNC(=O)c1ccccc1 [Example 186, N-[8-(4-amino-2-butyl-1H-imidazo[4,5-c]quinolin-1-yl)octyl]benzamide] | 149.5 to 151.3 °C | 0.12 µM | 0.04 µM
COCCc1nc2c(N)nc3ccccc3c2n1CCCCCCCCNC(=O)c1ccccc1 [Example 187, N-{8-[4-amino-2-(2-methoxyethyl)-1H-imidazo[4,5-c]quinolin-1-yl]octyl}benzamide] | 133.4 to 137.5 °C | 0.01 µM | 0.01 µM
CCCCc1nc2c(N)nc3ccccc3c2n1CCCNC(=O)c1ccccc1 [Example 189, N-[3-(4-amino-2-butyl-1H-imidazo[4,5-c]quinolin-1-yl)propyl]benzamide] | 189.4 to 190 °C | 0.12 µM | 0.04 µM
COCCc1nc2c(N)nc3ccccc3c2n1CC(C)(C)CNC(=O)c1ccccc1 [Example 190, N-{3-[4-amino-2-(2-methoxyethyl)-1H-imidazo[4,5-c]quinolin-1-yl]-2,2-dimethylpropyl}benzamide] | 103 to 125 °C | 0.01 µM | 0.01 µM
COCCc1nc2c(N)nc3ccccc3c2n1CCCNC(=O)c1cc2ccccc2cn1 [Example 192, N-{3-[4-amino-2-(2-methoxyethyl)-1H-imidazo[4,5-c]quinolin-1-yl]propyl}isoquinoline-3-carboxamide] | 198 to 198.5 °C | 0.37 µM | 0.12 µM
Nc1nc2ccccc2c2c1nc(CCCOc1ccccc1)n2CCCNC(=O)c1ccccc1 [Example 194, N-{3-[4-amino-2-(3-phenoxypropyl)-1H-imidazo[4,5-c]quinolin-1-yl]propyl}benzamide] | 192 to 194 °C | 10 µM | > 30 µM
COCCc1nc2c(N)nc3ccccc3c2n1CCCNC(=O)c1ccccc1 [Example 196, N-{3-[4-amino-2-(2-methoxyethyl)-1H-imidazo[4,5-c]quinolin-1-yl]propyl}benzamide] | 183 to 186 °C | 0.37 µM | 0.01 µM
